Test results as given in patent US20240228518A1, “NOVEL ORGANOTIN SILICATE COMPOUNDS, PREPARATION METHODS THEREOF AND PHOTORESIST COMPOSITION CONTAINING THE SAME” (JSI SILICONE CO., priority 2022, published 2024).

Tests used:
[1] = Solubility experiment in various solvents; type: physicochemical
Description: [Experimental Example 1] Solubility Experiment of tetrakis(triphenylstannyl) Silicate
For manufacturing a thin film including the tetrakis(triphenylstannyl) silicate compound prepared in Example 1, solubility in various solvents was experimented and is shown in the following Tables 2 and 3: […]

[2] = Stability in water (precipitation) of solution with acetic acid; type: physicochemical
Protocol: Since the photoresist composition included acetic acid, stability of tetrakis(triacetoxystannyl) silicate in water was able to be improved. When water was added at 5% to a 5% tetrakis(triacetoxystannyl) silicate solution, it was confirmed that precipitation occurred immediately. However, when acetic acid was added, precipitation was able to be prevented. It was confirmed that precipitation occurred after 3 minutes in a 10% acetic acid solution, after 3 hours in a 20% solution, and after 5 days in a 30% solution. Besides, the amount of precipitation was decreased as the acetic acid was added. Regarding a large amount of acetic acid, since a hydrolysis rate of an acetoxy group decreased according to le Chatelier's law, stability in water was improved.

c1cc[c]([Sn]([O][Si]([O][Sn]([c]2ccccc2)([c]2ccccc2)[c]2ccccc2)([O][Sn]([c]2ccccc2)([c]2ccccc2)[c]2ccccc2)[O][Sn]([c]2ccccc2)([c]2ccccc2)[c]2ccccc2)([c]2ccccc2)[c]2ccccc2)cc1 [Example 1, tetrakis(triphenylstannyl) silicate]
Solubility ([1]; Chloroform): highest solubilites and ◯ | Solubility ([1]; Ethyl lactate (EL)): Δ | Solubility ([1]; THF): highest solubilites and ◯ | Solubility ([1]; gamma-Butyrolactone (GBL)): Δ

CC(=O)[O][Sn]([O]C(C)=O)([O]C(C)=O)[O][Si]([O][Sn]([O]C(C)=O)([O]C(C)=O)[O]C(C)=O)([O][Sn]([O]C(C)=O)([O]C(C)=O)[O]C(C)=O)[O][Sn]([O]C(C)=O)([O]C(C)=O)[O]C(C)=O [Example 14, tetrakis(triacetoxystannyl) silicate]
Time until precipitation occurred ([2]; water added at 5% to 5% solution, no acetic acid): immediately | Time until precipitation occurred ([2]; water added, 10% acetic acid solution): 3 min | Time until precipitation occurred ([2]; water added, 20% acetic acid solution): 180 min | Time until precipitation occurred ([2]; water added, 30% acetic acid solution): 7200 min
